This note sets out measurements from patent publication US6057311A, “Benzodiazonine derivatives binding to cholecystokinin or gastrin receptors” (James Black Foundation Limited, priority 1996, dated 2000).

For the first test, the target named is T1, CCKB receptor (Mus musculus, UniProt P56481).
T1 construct: The cortex was dissected, weighed and homogenised in 40 ml ice-cold buffer; tissue Charles River (animals); host or cells: cerebral cortex of male CD1 mice, membranes
T1 sequence (P56481 1-453): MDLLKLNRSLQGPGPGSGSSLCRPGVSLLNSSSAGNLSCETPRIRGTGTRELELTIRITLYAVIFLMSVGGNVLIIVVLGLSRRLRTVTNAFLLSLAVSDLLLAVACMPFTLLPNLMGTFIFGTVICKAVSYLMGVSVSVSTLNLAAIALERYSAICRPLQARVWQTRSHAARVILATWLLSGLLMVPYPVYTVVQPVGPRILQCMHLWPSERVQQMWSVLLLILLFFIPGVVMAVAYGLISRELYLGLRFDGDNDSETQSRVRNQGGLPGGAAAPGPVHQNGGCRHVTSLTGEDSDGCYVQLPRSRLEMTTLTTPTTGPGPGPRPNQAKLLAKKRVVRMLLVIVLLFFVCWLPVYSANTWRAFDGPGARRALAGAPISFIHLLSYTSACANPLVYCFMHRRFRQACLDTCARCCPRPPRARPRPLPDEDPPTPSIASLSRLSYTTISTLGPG
The test can be described thus: radioligand binding assay at the CCKB receptor in mouse cortical membranes ([125I]-CCK8S). The note with it: [125I]-CCK8S 200 pM, 150 min at 21±3° C., pH 7.2. Here is the method: The compounds of the examples were tested for binding at the CCKB receptor in mouse cortical membranes by means of a radioligand binding assay. The procedure was as follows:
The whole brains from male mice (CD1 22-25 g; Charles River) were removed and placed in ice-cold buffer (pH7.2@21±3° C.) of the following composition (mM); 10 HEPES, 130 NaCl, 4.7 KCl, 5 MgCl2, 1 EDTA and containing 0.25 g.1^-1 bacitracin. The cortex was dissected, weighed and homogenised in 40 ml ice-cold buffer using a Teflon-in-glass homogeniser. The homogenate was centrifuged at 39,800 g for 20 min at 4° C., the supernatant discarded and the pellet resuspended by homogenisation in fresh buffer. The homogenate was recentrifuged (39,800 g; 20 min @4° C.) and the final pellet was resuspended in HEPES buffer to give a tissue concentration of 2 mg.ml^-1 (original wet weight).
The membranes (400 μl) were incubated for 150 min at 21±3° C. in a final volume of 0.5 ml with HEPES buffer containing [^125 I]-CCK8S (0.05 ml; 200 pM NEN 2200 Ci.mmol^-1) and competing compound. Total and non-specific binding of [^125 I]-CCK8S were defined using 0.05 ml of buffer and 0.05 ml of […] L-365,260, respectively. The assay was terminated by rapid filtration through pre-soaked Whatman GF/B filters using a Brandell Cell harvester. The filters were washed (3×3 ml) with ice-cold 50 mM Tris-HCl (pH7.4@4° C.) and bound radioactivity determined by counting (1 min.) in a gamma-counter.
As for `CC1CCN(C(=O)Nc2cccc(C(=O)O)c2)CC(=O)N(Cc2ccccc2)c2ccccc21` (stereo not shown) [Example 48, 1-benzyl-7-methyl-4-(3-carboxyphenyl)carbamyl-2-oxo-2,3,4,5,6,7-hexahydro-1H-1,4-benzodiazonine], the “pKi (Mouse cortex)” value was determined as 4.8.
On to `CC(=O)N1[C@H](CC23CC4CC(CC(C4)C2)C3)C(=O)N(Cc2ccccc2F)c2ccccc2C(=O)C[C@H]1C(=O)NCc1nn[nH]n1` [Example 68, (3R,5S)-4-acetyl-3-(1-adamantyl)methyl-1-(2-fluorobenzyl)-5-(5-tetrazolo)methylaminocarbonyl-2,7-dioxo-2,3,4,5,6,7-hexahydro-1H-1,4-benzodiazonine], for which the “pKi (Mouse cortex)” value was 6.8.
With `COc1ccc(CN2C(=O)[C@@H](CC34CC5CC(CC(C5)C3)C4)N(C(C)=O)[C@H](C(=O)NCC(=O)O)CC(=O)c3ccccc32)cc1` [Example 75, (3R,5S)-4-acetyl-3-(1-adamantyl)methyl-1-(4-methoxybenzyl)-5-carboxymethylaminocarbonyl-2,7-dioxo-2,3,4,5,6,7-hexahydro-1H-1,4-benzodiazonine], the “pKi (Mouse cortex)” value turned out to be 5.9.
Regarding “(+/-)-trans-4-acetyl-3-(1-adamantyl)methyl-1-benzyl-5-carboxymethylaminocarbonyl-2,7-dioxo-9-methyl-2,3,4,5,6,7-hexahydro-1H-1,4-benzodiazonine [Example 70]”, the “pKi (Mouse cortex)” value is recorded as 6.9.

Staying with this test, now noted: [125I]-CCK8S 200 pM, 150 min at 21±3° C., pH 7.2, read-out: pKi (Mouse cortex) (converted).
As to `COc1ccc2c(c1)C(=O)C[C@@H](C(=O)NCC(=O)O)N(C(C)=O)[C@H](CC13CC4CC(CC(C4)C1)C3)C(=O)N2Cc1ccccc1` (relative stereo) [Example 69, (+/-)-trans-4-acetyl-3-(1-adamantyl)methyl-1-benzyl-5-carboxymethylaminocarbonyl-2,7-dioxo-9-methoxy-2,3,4,5,6,7-hexahydro-1H-1,4-benzodiazonine], the Ki is 126 nM.
For `CC1CCN(C(=O)Nc2cc(C(=O)O)cc(C(=O)O)c2)CC(=O)N(Cc2ccccc2)c2ccccc21` (stereo not shown) [Example 47, 1-benzyl-7-methyl-4-(3,5-dicarboxyphenyl)carbamyl-2-oxo-2,3,4,5,6,7-hexahydro-1H-1,4-benzodiazonine], the Ki is 6310 nM.
Take `Cc1cccc(NC(=O)N2CCCc3ccccc3N(CC(=O)OC(C)(C)C)C(=O)C2)c1` [Example 49, 1-tert-butyloxycarbonylmethyl-4-(3-methylphenyl)carbamyl-2-oxo-2,3,4,5,6,7-hexahydro-1H-1,4-benzodiazonine]: the Ki was 6310 nM.
`Cc1cccc(NC(=O)N2CCCc3ccccc3N(Cc3ccccc3)C(=O)C2)c1` [Example 54, 1-benzyl-4-(3-methylphenyl)carbamyl-2-oxo-2,3,4,5,6,7-hexahydro-1H-1,4-benzodiazonine]: the Ki is 3980 nM.
As for `CC(=O)N1[C@H](CC23CC4CC(CC(C4)C2)C3)C(=O)N(Cc2cccc(Cl)c2)c2ccccc2C(=O)C[C@H]1C(=O)NCC(=O)O` [Example 62, (3R,5S)-4-acetyl-3-(1-adamantyl)methyl-1-(3-chlorobenzyl)-5-carboxymethylaminocarbonyl-2,7-dioxo-2,3,4,5,6,7-hexahydro-1H-1,4-benzodiazonine], the Ki was 398 nM.
As for `CC(=O)N1[C@H](CC23CC4CC(CC(C4)C2)C3)C(=O)N(Cc2ccccc2F)c2ccccc2C(=O)C[C@H]1C(=O)NCC(=O)NS(C)(=O)=O` [Example 65, (3R,5S)-4-acetyl-3-(1-adamantyl)methyl-1-(2-fluorobenzyl)-5-methanesulphonamidocarboxymethylaminocarbonyl-2,7-dioxo-2,3,4,5,6,7-hexahydro-1H-1,4-benzodiazonine], the Ki was 398 nM.
As to `CC(=O)N1[C@H](CC23CC4CC(CC(C4)C2)C3)C(=O)N(Cc2ccccc2F)c2ccccc2C(=O)C[C@H]1C(=O)N[C@@H](C)C(=O)NS(C)(=O)=O` [Example 66, (3R,5S)-4-acetyl-3-(1-adamantyl)methyl-1-(2-fluorobenzyl)-5-[(1S)-methanesulphonamidocarboxy]ethylaminocarbonyl-2,7-dioxo-2,3,4,5,6,7-hexahydro-1H-1,4-benzodiazonine], the Ki is 501 nM.
On the same count and under the same terms, the same measure for `CC(=O)N1[C@H](CC23CC4CC(CC(C4)C2)C3)C(=O)N(Cc2ccccc2)c2ccccc2C(=O)C[C@H]1C(=O)NCc1nn[nH]n1` [Example 67, (3R,5S)-4-acetyl-3-(1-adamantyl)methyl-1-benzyl-5-tetrazolomethylaminocarbonyl-2,7-dioxo-2,3,4,5,6,7-hexahydro-1H-1,4-benzodiazonine]: 158 nM.
On to `CC(=O)N1[C@H](CC23CC4CC(CC(C4)C2)C3)C(=O)N(Cc2cccc(C)c2)c2ccccc2C(=O)C[C@H]1C(=O)NCC(=O)O` [Example 71, (3R,5S)-4-acetyl-3-(1-adamantyl)methyl-1-(3-methylbenzyl)-5-carboxymethylaninocarbonyl-2,7-dioxo-2,3,4,5,6,7-hexahydro-1H-1,4-benzodiazonine], for which the Ki is 1000 nM.
As to `CC(=O)N1[C@H](CC23CC4CC(CC(C4)C2)C3)C(=O)N(Cc2ccc(C)cc2)c2ccccc2C(=O)C[C@H]1C(=O)NCC(=O)O` [Example 72, (3R,5S)-4-acetyl-3-(1-adamantyl)methyl-1-(4-methylbenzyl)-5-carboxymethylaminocarbonyl-2,7-dioxo-2,3,4,5,6,7-hexahydro-1H-1,4-benzodiazonine], the Ki was 631 nM.
Turning to `CC(=O)N1[C@@H](C(=O)NCC(=O)O)CC(=O)c2ccccc2N(Cc2ccccc2F)C(=O)[C@@H]1CC12CC3CC(CC(C3)C1)C2` [Example 73, (3S ,5R)-4-acetyl-3-(1-adamantyl)methyl-1-(2-fluorobenzyl)-5-carboxymethylaminocarbonyl-2,7-dioxo-2,3,4,5,6,7-hexahydro-1H-1,4-benzodiazonine], the Ki is 2510 nM.
For the compound `CC(=O)N1[C@H](CC23CC4CC(CC(C4)C2)C3)C(=O)N(Cc2ccccc2C)c2ccccc2C(=O)C[C@H]1C(=O)NCC(=O)O` [Example 74, (3R,5S)-4-acetyl-3-(1-adamantyl)methyl-1-(2-methylbenzyl)-5-carboxymethylaminocarbonyl-2,7-dioxo-2,3,4,5,6,7-hexahydro-1H-1,4-benzodiazonine], the Ki is 158 nM.
